Results from US11185542B2, “Uses of dopamine beta-hydroxylase (DBH) inhibitors and serotonin receptor (5-HT) antagonists for the treatment of cancer” (Jiangsu Yahong Meditech Co., Ltd., priority 2016, dated 2021).
“And” between values parts separate entries of the source, which are not always exact repeats. Equal values may be shown once.

Key:
[1] = test system: EMT-6 murine breast cancer xenograft; experiment: In vivo tumor growth, EMT-6 murine breast cancer xenograft model (Example 6); parameters: species or system Mouse (Mus Musculus); conditions: Nepicastat 50 mg/kg, QD, oral
Procedure: (§1) Experiments using the murine H22, CT-26 and EMT-6 xenograft models were performed as described below.
(§2) Cells were cultured in RPMI-1640 medium supplemented with 10% FBS at 37° C. in an atmosphere of 5% CO2 in air. The tumor cells were routinely subcultured three times weekly. The cells that grew in an exponential growth phase were harvested and counted for tumor inoculation.
(§3) Mice (female, 6-8 weeks old) were inoculated subcutaneously at the right flank with the tumor cells (H22, EMT-6, or CT-26) in 0.1 mL PBS for tumor development. When the tumor volume reached approximately 60-80 mm^3, the mice were grouped randomly according to the animal body weight and tumor volume. Each group had 5-8 tumor-bearing mice.
(§4) The major endpoint was to determine if tumor growth could be delayed or mice could be cured. Tumor volume was measured three times weekly in two dimensions using a caliper, and the volume was expressed in mm^3 using the formula: V=0.5 a×b^2, where a and b are the long and short diameters of the tumor, respectively. The T/C value (in percent) was an indication of antitumor effectiveness, where T and C were the mean volume of the treated and control groups, respectively, on a given day. The T-C value was calculated according to TV. T-C was calculated with T as the median time (in days) required for the treatment group tumors to reach a predetermined size (e.g., TV as 1000 mm^3), and C as the median time (in days) for the control group tumors to reach the same size. The body weights were measured and recorded at the same time to observe the toxicity of the compounds. The animals were sacrificed at the termination of the study.
(§5) Summary statistics, including mean and the standard error of the mean (SEM), are provided for the tumor volume of each group at each time point. A two-way analysis of variance (ANOVA) was performed to compare body weight, tumor volume and tumor volume change. A one-way ANOVA was performed to compare tumor weight. All data were analyzed using GraphPad Prism 5. p<0.05 was considered to be statistically significant.
(§6) Nepicastat was also tested for in vivo tumor growth inhibition in CT-26 murine colon cancer and EMT-6 murine breast cancer xenograft models. Nepicastat was administered orally.

[2] = test system: H22 murine hepatocarcinoma cell line; experiment: In vitro cell proliferation assay (CellTiter-Glo) in H22 murine hepatocarcinoma cell line; type: cell-based
Procedure: Methods: • (1) Cells were cultured in RPMI-1640 medium supplemented with 10% FBS, 100 U/ml penicillin, and […] streptomycin at 37° C. and 5% CO2 atmosphere. […] The anti-proliferative activity of amperozide, nepicastat, and paclitaxel was tested in the H22 murine hepatocarcinoma cell line according to the experimental procedure described in Example 1.

[3] = test system: H22 murine hepatic cancer xenograft; experiment: In vivo tumor growth, H22 murine hepatic cancer xenograft model, compared with anti-PD-1 mAb (Example 5); parameters: species or system Mouse (Mus Musculus); conditions: p.o.; for Tumor Volume (mm^3): QD x 20 days; for T/C (%) / TGI (%) tumor growth inhibition: QD
Procedure: as §1, §2, §3, §4, §5
The anti-cancer activity of nepicastat, etamicastat and anti-PD-1 monoclonal antibody (mAb) was evaluated in a H22 murine hepatic cancer xenograft model according to the experimental procedure described in Example 2.

[4] = test system: H22 murine hepatic cancer xenograft; experiment: In vivo tumor growth, H22 murine hepatic cancer xenograft model (Example 4); parameters: species or system Mouse (Mus Musculus)
Procedure: as §1, §2, §3, §4, §5
The anti-cancer activity of amperozide and nepicastat was evaluated in a H22 murine hepatic cancer xenograft model according to the experimental procedure described in Example 2. Anti-cancer activity was evaluated by measuring changes in tumor volume.

[5] = clinical dosage of nepicastat 160 mg/day; read-out: plasma maximal concentration (Cmax); cited from earlier work
[6] = test system: CT-26 murine colon cancer xenograft; experiment: In vivo tumor growth, CT-26 murine colon cancer xenograft model (Example 6); parameters: species or system Mouse (Mus Musculus); conditions: Nepicastat 50 mg/kg, QD, oral
Procedure: as §1, §2, §3, §4, §5, §6

[7] = Nepicastat 48 mg/kg, day 19, listed as nepicastat

NCc1c[nH]c(=S)n1[C@H]1CCc2c(F)cc(F)cc2C1 [Nepicastat, nepicastat]
T/C (%) ([1]; EMT-6 model, End): 76.91%
TGI (%) tumor growth inhibition ([1]; EMT-6 model, End): 23.09%
Tumor Volume (mm^3) in EMT-6 Model ([1]; day 5 (Initiation)): 61.55 ± 1.37 mm^3 and 61.55 ± 3.06 mm^3
Tumor Volume (mm^3) in EMT-6 Model ([1]; day 8): 110.11 ± 2.13 mm^3
Tumor Volume (mm^3) in EMT-6 Model ([1]; day 12): 229.32 ± 21.67 mm^3
Tumor Volume (mm^3) in EMT-6 Model ([1]; day 15): 385.24 ± 66.33 mm^3
Tumor Volume (mm^3) in EMT-6 Model ([1]; day 19 (End)): 697.23 ± 35.90 mm^3
Cell viability (%) ([2]; 0.1 μM, 72 h, H22 cells): 103.2%
anti-proliferative effect on H22 cell line ([2]; 1 μM and 0.1, in words): did not show any significant anti-proliferative effects
viability at 0.1 µM ([2]; Mus musculus, H22, 72 h, 0.1 μM, 72 h, H22 cells, read-out: Cell viability (%)): 102%
viability at 1 µM ([2]; Mus musculus, H22, 72 h, 1 μM, 72 h, H22 cells, read-out: Cell viability (%)): 94.4%
IC50 ([2]; Mus musculus, calculated from FIG. 1, read-out: IC50 in H22 murine hepatocarcinoma cells proliferation): 52.6 µM
Tumor Volume (mm^3) ([3]; Nepicastat 50 mg/kg, day 3): 56.45 ± 4.42 mm^3
Tumor Volume (mm^3) ([3]; Nepicastat 50 mg/kg, day 6): 107.64 ± 2.13 mm^3
Tumor Volume (mm^3) ([3]; Nepicastat 50 mg/kg, day 9): 212.98 ± 15.54 mm^3
Tumor Volume (mm^3) ([3]; Nepicastat 50 mg/kg, day 13): 369.64 ± 18.63 mm^3
Tumor Volume (mm^3) ([3]; Nepicastat 50 mg/kg, day 16): 552.37 ± 34.69 mm^3
Tumor Volume (mm^3) ([3]; Nepicastat 50 mg/kg, day 19): 677.68 ± 29.38 mm^3
Tumor Volume (mm^3) ([3]; Nepicastat 50 mg/kg, day 22): 880.28 ± 33.41 mm^3
Tumor Volume (mm^3) ([3]; Nepicastat 50 mg/kg, day 22, listed as nepicastat): 880.28 mm^3
T/C (%) ([3]; Nepicastat 50 mg/kg, day 22): 51.21%
TGI (%) tumor growth inhibition ([3]; Nepicastat 50 mg/kg, day 22): 48.79%
Tumor Volume (mm^3) ([3]; Nepicastat 100 mg/kg, day 3): 56.41 ± 3.96 mm^3
Tumor Volume (mm^3) ([3]; Nepicastat 100 mg/kg, day 6): 120.60 ± 12.92 mm^3
Tumor Volume (mm^3) ([3]; Nepicastat 100 mg/kg, day 9): 238.00 ± 22.62 mm^3
Tumor Volume (mm^3) ([3]; Nepicastat 100 mg/kg, day 13): 384.72 ± 54.05 mm^3
Tumor Volume (mm^3) ([3]; Nepicastat 100 mg/kg, day 16): 658.54 ± 71.96 mm^3
Tumor Volume (mm^3) ([3]; Nepicastat 100 mg/kg, day 19): 1049.88 ± 145.91 mm^3
Tumor Volume (mm^3) ([3]; Nepicastat 100 mg/kg, day 22): 1275.47 ± 154.93 mm^3
Tumor Volume (mm^3) ([3]; Nepicastat 100 mg/kg, day 22, listed as nepicastat): 1275.47 mm^3
T/C (%) ([3]; Nepicastat 100 mg/kg, day 22): 74.20%
TGI (%) tumor growth inhibition ([3]; Nepicastat 100 mg/kg, day 22): 25.80%
T-C (days) (Reach 1000 mm^3) ([4]; Nepicastat 16 mg/kg): 1 days
Tumor Volume ([4]; Nepicastat 16 mg/kg, day 5): 80 ± 6 mm^3
Tumor Volume ([4]; Nepicastat 16 mg/kg, day 7): 140 ± 13 mm^3
Tumor Volume ([4]; Nepicastat 16 mg/kg, day 9): 260 ± 25 mm^3
Tumor Volume ([4]; Nepicastat 16 mg/kg, day 12): 542 ± 75 mm^3
Tumor Volume ([4]; Nepicastat 16 mg/kg, day 14): 982 ± 111 mm^3
Tumor Volume ([4]; Nepicastat 16 mg/kg, day 16): 1,454 ± 173 mm^3
T/C (%) ([4]; Nepicastat 16 mg/kg, day 19): 84.1%
TGI (%) tumor growth inhibition ([4]; Nepicastat 16 mg/kg, day 19): 15.9%
Tumor Volume ([4]; Nepicastat 16 mg/kg, day 19): 2,546 ± 306 mm^3
T-C (days) (Reach 1000 mm^3) ([4]; Nepicastat 48 mg/kg): 2 days
Tumor Volume ([4]; Nepicastat 48 mg/kg, day 5): 80 ± 6 mm^3
Tumor Volume ([4]; Nepicastat 48 mg/kg, day 7): 146 ± 12 mm^3
Tumor Volume ([4]; Nepicastat 48 mg/kg, day 9): 249 ± 26 mm^3
Tumor Volume ([4]; Nepicastat 48 mg/kg, day 12): 493 ± 74 mm^3
Tumor Volume ([4]; Nepicastat 48 mg/kg, day 14): 795 ± 129 mm^3
Tumor Volume ([4]; Nepicastat 48 mg/kg, day 16): 1,150 ± 188 mm^3
T/C (%) ([4]; Nepicastat 48 mg/kg, day 19): 65.8%
TGI (%) tumor growth inhibition ([4]; Nepicastat 48 mg/kg, day 19): 34.2%
Tumor Volume ([4]; Nepicastat 48 mg/kg, day 19): 1,992 ± 349 mm^3
T/C (%) [4, 7]: 66%
Tumor Volume [4, 7]: 1992 mm^3
Cmax [5]: ~200 nM
T/C (%) ([6]; CT-26 model, End): 65.70%
TGI (%) tumor growth inhibition ([6]; CT-26 model, End): 34.30%
Tumor Volume (mm^3) in CT-26 Model ([6]; day 7 (Initiation)): 59.35 ± 1.65 mm^3 and 59.35 ± 3.69 mm^3
Tumor Volume (mm^3) in CT-26 Model ([6]; day 10): 86.00 ± 11.91 mm^3
Tumor Volume (mm^3) in CT-26 Model ([6]; day 14): 314.14 ± 33.19 mm^3
Tumor Volume (mm^3) in CT-26 Model ([6]; day 17): 501.46 ± 50.04 mm^3
Tumor Volume (mm^3) in CT-26 Model ([6]; day 21 (End)): 1087.75 ± 163.63 mm^3
